Results published in patent US5583155A, “6-amino-1,2-benzopyrones useful for treatment of viral diseases” (Octamer, Inc., priority 1994, dated 1996).
“Also recorded” adds a separate entry of the source. Read-outs that look alike come from different tables or passages of the source.

What was measured:
[1] = Intracellular metabolism of 6-ABP
[2] = test system: Enterovirus (ECHO-11); test: microbe, parasite or virus in culture; type: cell-based
[3] = test system: ADPRT; settings: FEBS Lett., 212:73 (1987); cited from earlier work
[4] = test system: HIV in MT-2 cells; test: HIV syncytia formation in MT-2 cells; type: cell-based; settings: 3 mM
Experimental: Whereas the activation of latent HIV by various DNAs and its prevention by 6-ABP were shown above, the following experiments examine the effects of 6-ABP on the direct propagation of highly virulent HIV strain obtained from NIH in Molt III cells, using cell supernatant as source of virus on AA-2 and MT2 cells in culture. More than 60 tests were performed varying virus titers, time of exposure, and exposure to 6-ABP.
Equivalent results, shown in FIG. 9, were obtained with MT-2 cells. In FIG. 9, the inhibition of syncytia formation was quantitatively assayed. […] At very high HIV titre, at 1:100 dilution the untreated syncitia formation was 150 times higher than in treated culture.

[5] = test system: HSV-1 strain F; test: microbe, parasite or virus in culture; type: cell-based, Herpes simplex virus type 1
[6] = test system: established cell lines; test: Intracellular drug concentration / transport in twelve cell lines; type: in vitro ADME
Experimental: It is of importance to determine both intracellular drug concentrations and mechanisms of drug transport. Twelve different cell types were incubated with varying concentrations of the drug for varying periods and intracellular drug concentration assayed with the aid of [5^3 H] labeled 6-ABP. […] Thus, there is a significant transport regulation through the cell membrane.

[7] = test system: RSV; test: microbe, parasite or virus in culture; type: cell-based, Respiratory Syncytium virus (patient isolate)
[8] = test system: ADPRT; test: Binding to ADPRT; settings: enzymes other than ADPRT
[9] = test system: Adenovirus; test: microbe, parasite or virus in culture; type: cell-based, Adenovirus (patient isolate)
[10] = test system: HIV in U937 cells; test: HIV growth in U937 cells without activator (syncytium-forming assay); type: cell-based, HIV-1
Experimental: In order to assess a possible direct effect of the drug on the growth of HIV, experiments shown in FIG. 3 were reproduced, except that conditions of virus titration (by SFU) were refined, to detect relatively low virus titers.
Transfection was 24 hours before HIV infection.

[11] = test system: HIV in human lymphoblasts; test: HIV production in human lymphoblasts (p24 antigen); type: cell-based, HIV (isolates from blood of infected patients)
Experimental: In FIG. 10, human lymphoblast exposed to 6-ABP for 18 hours. The drug concentrations studied were between 0.01 to 10 mM. HIV production was studied in two time intervals, 6 and 12 days after the drug removal.
In FIGS. 11A through 11E, normal lymphoblasts stimulated with PHA are infected with HIV and at the same time are submitted to various concentrations from 0-10 mM 6-ABP. After the short exposure of 18 hours, both HIV and 6-ABP are removed, FIGS. 11A, 11C, 11E and the 6-ABP in the same concentrations is readded up to 4 days to cultures shown in FIGS. 11B and 11D. At 4 days, proliferation index measured by ^3 H-thymidine incorporation is determined in FIGS. 11A and 11B. […] In FIGS. 11C and […], the viral synthesis or inhibition is measured by p 24 assay.
The HIV isolates used in these experiments were isolated from the blood of infected patients. After isolation, HIV infection was established in CEM cells, and these infected cells were used to produce a stock of HIV virus that was titered to measure the concentration of tissue culture infective doses (TCID).
6 ABP was dissolved in saline in amount which was further diluted as required, and added to the culture medium containing cells at the indicated concentrations.
Human peripheral blood mononuclear cells from a noninfected, normal individual were stimulated for 2 to 3 days with phytohemagglutinin in tissue culture, washed, aliquoted and cultured overnight with 200 TCID or 50 TCID of HIV and were untreated or treated with 0.01, 0.1, 1.0 or 10.0 mM 6-ABP. An additional control was incubated with 10 mM 6-ABP without presence of HIV. After the overnight incubation, […]. The cells were placed in culture in medium containing IL-2, but in the absence of additional 6-ABP, and monitored at 6 days and 12 days for the production of HIV-p24 core antigen, or for measurements of particulate reverse transcriptase. A decrease in the amount of either of these indicators of HIV indicated an inhibition by 6-ABP in the ability of HIV to replicate in normal human lymphoblasts.
HIV p24 antigen was measured by ELISA, with a cutoff of 5 pgm/ml. Particulate reverse transcriptase was measured by centrifuging down free virus from tissue culture fluids, lysing HIV in a buffer containing detergent, magnesium, H3-labelled dTTP and poly rA.oligo dT primer, incubating for 1 hour, and measuring precipitable radioactivity, expressed as cpm per volume of HIV-containing medium.

[12] = test system: HIV (activated by HSV IE-110) in U937 cells; test: HIV growth activated by HSV IE110 in U937 cells (syncytium-forming assay)
Experimental: For the purpose of determining the ability of 6-ABP to inhibit HIV growth activation, the duplicate cells cultures were used. In experiments 1 and 2, U937 cells were transfected with HSV IE-110 gene and, CMV IE gene and infected HIV. […] In experiment 3, U937 cells transfected with HSV IE-110 and infected with HIV were treated with 3 mM of 6-ABP.
In all experiments shown in FIG. 3 and 4, the cells were exposed to 3 mM drug for 24 hrs.
DNA transfection was performed with DEAE dextran. Briefly, U937 cells (5×10^6) were exposed for 60 min. at 37° C. to a mixture of DEAE Dextran (1.05 ug/ml) and DNA in STBS buffer (25 mM Tris HCl, having pH 7.5, 137 mM NaCl, 0.5 MgCl2, 0.7 mM CaCl2 and 5 mM KCl and 0.6 mM Na2 HPO4) in 15 ml snap cap 6×35 mm polyethylene dishes from Costar, Cambridge, Mass., at 5×10^6 cells per well. Routinely, transfection mixtures contained 1.0 ug of target supercoiled plasmid and 0.1 ug DNA to equalize nucleic acid concentration effects. Transfected cells were harvested 40 to 44 hr post transfection in CAT harvest buffer (40 mM Tris, having pH 7.4 150 mM NaCl, 1 mM EDTA) and stored at -20° C. until assayed.
In one series of experiments, the effect of HSV IE110 and CMV IE2 gene expression on HIV replication using the syncytium assay formation on MT2 cells that defines HIV growth was examined. The ability of 6-ABP to inhibit HIV growth activation was studied in duplicate cultures. U937 cells were transfected with HSV IE110 CMV IE genes or mock transfected with pBR322 plasmid and duplicate cells were pretreated with HIV. Virus (HIV) growth was assayed at various times thereafter. HIV titers are expressed as syncytia forming units/ml.
Transfection was 24 hours before HIV infection. Sampling was done at days 3, 5, 6, and 8 post infection with HIV. 6-ABP treatment was 24 hours prior to transfection in order to allow intercellular 6-ABP concentration to equilibrate with external drug concentration. The timing chosen and drug dosage relate to drug penetration.

[13] = 1 mM 6-ABP, 24 hours before infection

Compound: Nc1ccc2oc(=O)ccc2c1 [6-ABP, 6-amino-1,2-benzopyrone]
- reduction-oxidation cycle ([1]; liver vs target cells): high in liver but much lower in target cells
- intracellular oxidation ([1]; to 6-nitroso-1,2-benzopyrone): rapid oxidation at the 6-amino position
- Virus Titer +6-ABP (Enterovirus) ([2]; 1 mM 6-ABP, 24 hours before infection, ECHO-11): 1.6 × 10^6 TCID50
- effect on Enterovirus growth ([2]; 6-ABP treatment): no effect
- inhibition at 1000 µM ([2]; Enterovirus, 1 mM 6-ABP, 24 hours before infection, ECHO-11): 0%
- binding to ADPRT [3]: specifically binding to ADPRT at the same site that also binds catalytically effective DNA termini
- HIV production / syncytia formation in MT-2 cells [4]: nearly completely suppressed HIV production
- untreated syncytia formation relative to treated culture ([4]; HIV titre 1:100 dilution): 150 times
- effect of time of drug addition, HSV-1 (F) ([5]; 1, 5 and 10 mM, zero time vs 4 hours after infection): essentially no differences found between the two modes of drug exposure
- dependence of inhibitory effect on cell type ([5]; HSV growth in HEp-2, Vero and MRC-5 cells): not affected by cell type
- inhibition at 1000 µM ([5]; Human alphaherpesvirus 1, 1 mM at 0 and 4 hours post infection, respectively, read-out: inhibition of HSV-1 growth): 60 to 65%
- inhibition at 1000 µM ([5]; Human alphaherpesvirus 1, 1 mM, 24 hours before infection, read-out: inhibition of HSV-1 growth): 50%
- inhibition at 10000 µM ([5]; Human alphaherpesvirus 1, 10 mM, 0 and 4 hours post infection, read-out: inhibition of HSV-1 growth): ~80%
- inhibition at 2000 µM ([5]; Human alphaherpesvirus 1, HEp-2, 24 h, 2 mM, 24 hrs preexposure, HEp-2 cells, FIG. 1A, read-out: inhibition of HSV-1 strain F growth): > 50%
- IC50 ([5]; Human alphaherpesvirus 1, 24 hours pretreatment, HEp-2 cells, read-out: concentration for 50% inhibition of growth, HSV-1 strain F): 2000 µM
- concentration of intracellular drug ([6]; 1 mM extracellular administration, depending on cell types): 65 to 200 µM
- intracellular plateau, % of drug concentration applied extracellularly ([6]; 12 established cell lines): 10-20%
- time to plateau of 6-ABP transport ([6]; 12 established cell lines): 18 to 24 h
- penetration of mammalian cells ([6]; physiological pH 7.2-7.4): to a limited degree
- Virus Titer +6-ABP (RSV) [7, 13]: 1 × 10^5 TCID50
- effect on RSV growth ([7]; 6-ABP treatment): no effect
- inhibition at 1000 µM ([7]; human respiratory syncytial virus, 1 mM 6-ABP, 24 hours before infection): 0%
- effect on other enzymes [8]: no other enzymes are activated or inhibited
- Virus Titer +6-ABP (Adenovirus) [9, 13]: 1 × 10^2 TCID50
- effect on Adenovirus growth ([9]; 6-ABP treatment): no effect
- inhibition at 1000 µM ([9]; unidentified adenovirus, 1 mM 6-ABP, 24 hours before infection): 0%
- effect on HIV growth without activator ([10]; 3 mM, FIGS. 3 and 4): completely inhibit any viral growth; also recorded: significant effect on HIV growth
- effect on HIV growth in absence of activating HSV gene ([10]; Table 2 experiment): significant reduction in HIV growth
- HIV growth, U937 + 6-ABP ([10]; day 3, no activator): 13 SFU/ml
- HIV growth, U937 + 6-ABP ([10]; day 5, no activator): 10 SFU/ml
- HIV growth, U937 + 6-ABP ([10]; day 6, no activator): 10 SFU/ml
- HIV growth, U937 + 6-ABP ([10]; day 8, no activator): 10 SFU/ml
- viral multiplication, p 24 assay ([11]; 0-10 mM, 18 hours or 4 days exposure, FIGS. 11C and 11D): almost completely inhibited
- HIV production in human lymphoblasts ([11]; 0.1 μM (so in the source), 18 hours exposure, 6 and 12 days): HIV production decreased dramatically
- decrease of HIV (p24 tests) ([11]; 0.1 mM, 18 hours exposure, 6 or 12 days past infection): dramatic decrease of HIV
- selectivity against HIV replication vs cellular DNA synthesis ([11]; 18 hr exposure, FIG. 11): great selectivity of 6-ABP against HIV replication
- effect on activation by HSV IE110 ([12]; 1 mM): virtually abrogates activation by HSV IE110
- HIV growth, U937 + HSV IE110 + 6-ABP ([12]; 1 mM, day 3): 32 SFU/ml
- HIV growth, U937 + HSV IE110 + 6-ABP ([12]; 1 mM, day 5): 64 SFU/ml
- HIV growth, U937 + HSV IE110 + 6-ABP ([12]; 1 mM, day 6): 100 SFU/ml
- HIV growth, U937 + HSV IE110 + 6-ABP ([12]; 1 mM, day 8): 100 SFU/ml
- effect on IE-110(HSV)-activated growth of HIV ([12]; 3 mM, FIG. 3): profoundly depresses IE-110(HSV)-activated growth of HIV
- HIV growth, U937 + HSV IE-110, reduced to background levels ([12]; 3 mM, days 4 to 8, FIG. 3): 250-300 SFU per ml
